For two compounds, MIC and IC50 results are on record in publication PMC7125129, “Anti-HIV agent azidothymidine decreases Tet(X)-mediated bacterial resistance to tigecycline in Escherichia coli” (Communications Biology, 2020).

One test deals with T1, E. coli B3-1 (tet(X4)).
T1 construct: B3-1
The experiment in a line: microbe, parasite or virus in culture. Particulars: Escherichia coli. Further details: Broth microdilution MIC, bacterial growth inhibition in Mueller-Hinton broth. Here is the method: (§1) Bacterial and chemical reagents Sequential culturing of E. coli ATCC 25922 in the presence of subinhibitory levels of tigecycline, azidothymidine, or the combination. After 24 h co-incubation, any cultures that grew at higher than the MIC levels were passaged on drug free MHA plates and the MIC was then determined by broth microdilution. This serial passaging was repeated daily for 30 days. To further evaluate the synergistic activity between tigecycline and three candidates, standard checkerboard microdilution in E. coli B3-1 was performed. […] Thus, we next focused our insights on the potentiation potency of azidothymidine with tigecycline. We first evaluated the stability of the azidothymidine-tigecycline combination in the presence of salt ions and serum, which are two critical factors that affect the in vivo efficacy of drugs[20],[21]. […] However, addition of divalent cations such as Ca^2+ and Mg^2+ (10 mM) abolished its potentiation activity, but EDTA could augment the synergistic effect (Supplementary Fig. 2). Considering that divalent cations and EDTA are associated with membrane permeability, we speculated that entrance of two drugs into bacteria contribute to their activity. Next, we assessed the potency of this combination in a panel of clinical isolates from animals and environmental samples (Supplementary Tables 2 and 3). […] To investigate whether this potentiation is also applicable in Tet(X)-negative bacteria, standard ATCC sensitive bacteria and other E. coli isolates with MIC values of ≤1 μg mL^−1 for tigecycline were tested.

The target of a further test is T2, Tet(X4) (Escherichia coli, UniProt A0A3T0V9Y5).
T2 construct: gene mtr-1
The experiment in a line: purified enzyme inhibition assay, tigecycline absorbance at […] nm. Type of test: biochemical.

For the next test, the system named is T3, E. brevis S1-3 (tet(X3)).
T3 construct: S1-3 (tet(X3))
The test is described as follows: organism not typed. Further details: Broth microdilution MIC, bacterial growth inhibition in Mueller-Hinton broth. The following applies: read-out: MIC (μg/mL). Here is the method: (§2) Bacterial and chemical reagents Sequential culturing of E. coli ATCC 25922 in the presence of subinhibitory levels of tigecycline, azidothymidine, or the combination. After 24 h co-incubation, any cultures that grew at higher than the MIC levels were passaged on drug free MHA plates and the MIC was then determined by broth microdilution. This serial passaging was repeated daily for 30 days. To further evaluate the synergistic activity between tigecycline and three candidates, standard checkerboard microdilution in E. coli B3-1 was performed. […] Thus, we next focused our insights on the potentiation potency of azidothymidine with tigecycline. We first evaluated the stability of the azidothymidine-tigecycline combination in the presence of salt ions and serum, which are two critical factors that affect the in vivo efficacy of drugs[20],[21]. […] However, addition of divalent cations such as Ca^2+ and Mg^2+ (10 mM) abolished its potentiation activity, but EDTA could augment the synergistic effect (Supplementary Fig. 2). Considering that divalent cations and EDTA are associated with membrane permeability, we speculated that entrance of two drugs into bacteria contribute to their activity. Next, we assessed the potency of this combination in a panel of clinical isolates from animals and environmental samples (Supplementary Tables 2 and 3). […]

For test [1], the system named is T4, E. fergusonnii 1C4-6 (tet(X4)).
T4 construct: 1C4-6 (tet(X4))
The experiment in a line: organism not typed. Particulars: read-out: MIC (μg/mL). The arrangement: Broth microdilution MIC, bacterial growth inhibition in Mueller-Hinton broth. Here is the method: as §2

The subject of test [2] is T5, E. coli B2 (NDM-5 + MCR-1).
T5 construct: B2
The experiment in a line: microbe, parasite or virus in culture. Further details: Broth microdilution MIC, bacterial growth inhibition in Mueller-Hinton broth. Particulars: Escherichia coli, read-out: MIC (μg/mL). Here is the method:
as §1

In another test the test system is T6, E. coli B8-1 (tet(X4)).
T6 construct: B8-1
The test is described as follows: microbe, parasite or virus in culture. The arrangement: Broth microdilution MIC, bacterial growth inhibition in Mueller-Hinton broth. The following applies: Escherichia coli, read-out: MIC (μg/mL). How it is done:
as §1

The test system of another test is T7, E. coli B9-1 (tet(X4)).
T7 construct: B9-1
The experiment in a line: microbe, parasite or virus in culture. Further details: Broth microdilution MIC, bacterial growth inhibition in Mueller-Hinton broth. Particulars: Escherichia coli, read-out: MIC (μg/mL). How it is done: as §1

The test system of a further test is T8, E. coli C3 (NDM-1).
T8 construct: C3
The test is described as follows: microbe, parasite or virus in culture. The arrangement: Broth microdilution MIC, bacterial growth inhibition in Mueller-Hinton broth. Particulars: Escherichia coli, read-out: MIC (μg/mL). Here is the method: as §1

The next test deals with T9, E. coli G6 (NDM-5).
T9 construct: G6
The experiment in a line: microbe, parasite or virus in culture. The arrangement: Broth microdilution MIC, bacterial growth inhibition in Mueller-Hinton broth. Particulars: Escherichia coli, read-out: MIC (μg/mL). Here is the method:
as §1

For another test, the system named is T10, E. coli P10-1 (tet(X4)).
T10 construct: P10-1
The test is described as follows: microbe, parasite or virus in culture. The arrangement: Broth microdilution MIC, bacterial growth inhibition in Mueller-Hinton broth. The following applies: Escherichia coli, read-out: MIC (μg/mL). Here is the method:
as §1

The next test has as its system T11, E. coli P3-1 (tet(X4)).
T11 construct: P3-1
The experiment in a line: microbe, parasite or virus in culture. The arrangement: Broth microdilution MIC, bacterial growth inhibition in Mueller-Hinton broth. Particulars: Escherichia coli, read-out: MIC (μg/mL). Here is the method: as §1

The next test concerns T12, E. coli W7-1 (tet(X4)).
T12 construct: W7-1
The test is described as follows: microbe, parasite or virus in culture. Further details: Broth microdilution MIC, bacterial growth inhibition in Mueller-Hinton broth. Particulars: Escherichia coli, read-out: MIC (μg/mL). How it is done:
as §1

For test [3], the system named is T13, Enterococcus faecalis VRE A4.
T13 construct: VRE A4
The test is described as follows: microbe, parasite or virus in culture. Further details: Broth microdilution MIC, bacterial growth inhibition in Mueller-Hinton broth. Particulars: read-out: MIC (μg/mL). Here is the method:
as §1

Test [4] concerns T14, Escherichia coli ATCC 25922.
T14 construct: ATCC 25922
The test is described as follows: microbe, parasite or virus in culture. Further details: Broth microdilution MIC, bacterial growth inhibition in Mueller-Hinton broth. The following applies: Escherichia coli, ATCC25922, read-out: MIC (μg/mL). Here is the method: as §1

The subject of test [5] is T15, Proteus penneri 2F1-3 (tet(X4)).
T15 construct: 2F1-3 (tet(X4))
The test is described as follows: microbe, parasite or virus in culture. The following applies: read-out: MIC (μg/mL). Further details: Broth microdilution MIC, bacterial growth inhibition in Mueller-Hinton broth. How it is done:
as §1

The subject of test [6] is T16, S. aureus 215 (LZD^R + cfr).
T16 construct: 215
The experiment in a line: microbe, parasite or virus in culture. Particulars: Staphylococcus aureus, read-out: MIC (μg/mL). The arrangement: Broth microdilution MIC, bacterial growth inhibition in Mueller-Hinton broth. Here is the method: as §1

Test [7] concerns T17, Salmonella enterica ATCC 13076.
T17 construct: ATCC 13076
The test is described as follows: microbe, parasite or virus in culture. The arrangement: Broth microdilution MIC, bacterial growth inhibition in Mueller-Hinton broth. Particulars: ATCC13076, read-out: MIC (μg/mL). Here is the method: as §1

The test system of test [8] is T18, Shigella 1F25-27 (tet(X4)).
T18 construct: 1F25-27 (tet(X4))
The test is described as follows: microbe, parasite or virus in culture. The arrangement: Broth microdilution MIC, bacterial growth inhibition in Mueller-Hinton broth. Particulars: read-out: MIC (μg/mL). How it is done: as §1

In test [9] the test system is T19, Staphylococcus aureus ATCC 29213.
T19 construct: ATCC 29213
The experiment in a line: microbe, parasite or virus in culture. The arrangement: Broth microdilution MIC, bacterial growth inhibition in Mueller-Hinton broth. Particulars: Staphylococcus aureus, ATCC29213, read-out: MIC (μg/mL). How it is done:
as §1

Test [10] relates to T20, Staphylococcus aureus MRSA 1518.
T20 construct: 1518
The test is described as follows: microbe, parasite or virus in culture. The following applies: Staphylococcus aureus, MRSA, read-out: MIC (μg/mL). Further details: Broth microdilution MIC, bacterial growth inhibition in Mueller-Hinton broth. How it is done:
as §1

The test system of test [11] is T21, Staphylococcus aureus MRSA T144.
T21 construct: T144
The test is described as follows: microbe, parasite or virus in culture. Further details: Broth microdilution MIC, bacterial growth inhibition in Mueller-Hinton broth. The following applies: Staphylococcus aureus, MRSA, read-out: MIC (μg/mL). Here is the method:
as §1

Read-outs that look alike come from different tables or passages of the source.

Turning to `CN(C)c1cc(NC(=O)CNC(C)(C)C)c(O)c2c1C[C@H]1C[C@H]3[C@H](N(C)C)C(O)=C(C(N)=O)C(=O)[C@@]3(O)C(O)=C1C2=O` [Tigecycline], the MIC in the test on E. coli B3-1 (tet(X4)) (read-out: MHB (MIC, μg/mL)) stood at 32 µg/mL.
In general, IC50 refers to the point on the concentration scale where inhibition reaches its midpoint. `Cc1cn([C@H]2C[C@H](N=[N+]=[N-])[C@@H](CO)O2)c(=O)[nH]c1=O` [AZI, azidothymidine] had a concentration for half-maximal inhibition (IC50) against Tet(X4) of 106 nM. Besides, the MIC in the test on E. brevis S1-3 (tet(X3)) was over 32 µg/mL; in test [1], 8 µg/mL; in test [2], over 16 µg/mL; in the test with E. coli B3-1 (tet(X4)) (read-out: MIC (μg/mL)) it was 1 µg/mL; with E. coli B8-1 (tet(X4)), 0.5 µg/mL; in the test on E. coli B9-1 (tet(X4)), 1 µg/mL. In addition, the MIC was over 16 µg/mL in the test with E. coli C3 (NDM-1); 4 µg/mL in the test with E. coli G6 (NDM-5); 0.25 µg/mL in the test on E. coli P10-1 (tet(X4)); 0.5 µg/mL in the test on E. coli P3-1 (tet(X4)); 2 µg/mL in the test on E. coli W7-1 (tet(X4)); over 16 µg/mL in [3]. Besides, the MIC in test [4] is 2 µg/mL; in [5] it was 8 µg/mL; in test [6], over 16 µg/mL; in test [7], 0.25 µg/mL; in test [8], 2 µg/mL; in test [9] it was over 16 µg/mL. In addition, the MIC in [10] and in test [11] was over 16 µg/mL throughout.
